“Also recorded” adds a separate entry of the source. Residues, ends and D or L forms follow the SMILES beside them.
What was measured:
[1] = system: OVA-sensitized C57BL/6J mice; assay: OVA murine model of experimentally-induced asthma (lung histology); assay type: in vivo; details: 0.3 mg/kg every other day for 10 days
Source text: Murine Model of Experimentally-Induced Asthma. C57BL/6J mice (12-14 wk old) from Jackson Laboratory (Bar Harbor, ME) were housed in sterile autoclavable microisolation cages and fed standard laboratory mouse chow and water ad libitum. All protocols were approved by the Institutional Animal Care and Use Committee (IACUC) of the Medical College of Wisconsin.
C57BL/6J mice were divided into three groups; a control group (Control), an ovalbumin (OVA)-sensitized group and an OVA-sensitized group treated with KYC. OVA sensitization was achieved using a modification of a protocol previously described by de Siqueira et al^15 (Fig. 1). […] When mice inhale aerosolized OVA, robust allergic responses are routinely observed.
Briefly, on day one, mice were anesthetized (halothane; Halocarbon Laboratories, River Edge, NJ) and a heat-denatured OVA fragment (∼80 mg, 5 × 2 × 2 mm) was implanted subcutaneously in the dorsal aspect of the neck. The incision was closed with stainless steel clips and the mouse was allowed to recover. Implantation of the heat-denatured OVA fragment initiates sensitization. On day fifteen, the implanted mice were exposed to aerosolized OVA (6% in PBS) for 30 minutes every other day for ten days. Twenty-four hours after the last OVA challenge, the mice were deeply anesthetized (halothane), sacrificed by exsanguination and the lungs removed for analysis. […]

MPO [2] = assay: MPO-mediated nitration of bovine serum albumin (western blot); assay type: biochemical; details: for MPO-mediated BSA nitration: H2O2 100 µM, nitrite 100 µM
Protocol: MPO-mediated Nitration of Bovine Serum Albumin (BSA). BSA (0.5 mg/mL) was incubated with MPO (20 nM), H2O2 (100 µM), nitrite (100 µM) and increasing concentrations of KYC in phosphate buffer (100 mM, pH 7.4) containing DTPA (100 µM) for 30 min. Reactions were stopped by addition of catalase. Nitrotyrosine formation was assessed by western blot analysis.
MPO-mediated Nitration of Bovine Serum Albumin (BSA): BSA (0.5 mg/mL) was incubated with MPO (20 nM), H2O2 (25 µM), NaNO2 (50 µM) and increasing concentrations of KYC in phosphate buffer (100 mM, pH 7.4) containing DTPA (100 µM) for 30 min. Reactions were halted by addition of catalase (2,000 units/mL). NO2Tyr formation was assessed by western blot analysis with an anti-NO2Tyr rabbit polyclonal antibody (EMD, Gibbstown, NJ).

MPO [3] = assay: MPO-mediated LDL malondialdehyde (MDA) formation; assay type: biochemical; details: increasing concentrations; LDL 0.5 mg/mL, MPO 50 nM, H2O2 50 µM, NO2 50 µM
Protocol: MPO-mediated LDL Malondialdehyde (MDA) Formation: Reaction mixtures contained LDL (0.5 mg/mL), NaNO2 (50 µM), H2O2 (50 µM), MPO (50 nM) and increasing concentrations of KYC in a phosphate buffer (100 mM, pH 7.4) containing DTPA (100 µM). After incubation at 37 °C for 4 h, the reactions were stopped by addition of catalase (2,000 units/mL). The formation of MDA was determined according to a published procedure. Briefly, incubation mixtures (containing 25 mM BHT) were adjusted to pH 1.5 and incubated at 60 °C for 80 min to hydrolyze the Schiff Bases formed from MDA and protein. The samples were mixed with 3-fold volume of N-methyl-2-phenylindole (13.4 mM in acetonitrile/methanol (3:1)). After centrifugation (13000 g, 5 min) 330 µL of the supernatants were mixed with 57.5 µL of concentrated HCl and incubated at 45 °C for another 60 min. Finally, after centrifugation (13000 g, 5 min), total MDA in the samples was determined from the absorbance at 586 nm using a UV-Vis spectrophotometer (Agilent Model 8453).

MPO [4] = assay: MPO-mediated nitration of LDL (dot blot); assay type: biochemical; details: MPO/H2O2/NaNO2, 37 °C, 4 h
Protocol: MPO-mediated Nitration of LDL: LDL (0.5 mg/mL) was incubated with MPO (50 nM), H2O2 (50 µM), NaNO2 (50 µM) and increasing concentrations of KYC in phosphate buffer (100 mM, pH 7.4) containing DTPA (100 µM) at 37 °C for 4 h. Reactions were stopped by addition of catalase (2,000 units/mL). Formation of NO2Tyr was assessed by dot blot analysis. Briefly, LDL solutions were mixed with 1% SDS and centrifuged (12000 g, 15 min). Aliquots of supernatants were applied to a nitrocellulose membrane with a dot blot apparatus (Biorad model: Bio-Dot). The levels of NO2Tyr were visualized using a rabbit polyclonal anti-NO2Tyr antibody (EMD, Gibbstown, NJ) and the ECL plus kit from Thermo-Peirce (Rockford, IL).

SCD mice = assay: WBC counts in SCD mice (cytometry); assay type: in vivo; details: SCD mice treated for three weeks
Protocol: MPO improves vascular function in SCD mice. To determine whether inhibiting MPO improves vascular function and/or reduces inflammation in vivo, SCD mice were treated with KYC for three weeks. […] Such physiological and structural changes are consistent with immunofluorescent studies showing that chlorotyrosine and MPO levels are reduced in the aortas of KYC-treated SCD mice compared with non-treated SCD mice (Fig. 13). High WBC counts are indicative of on-going inflammation in SCD and predictive of future vaso-occlusive events. Accordingly, WBC levels were quantified in the SCD mice using standard cytometry assays.

SMILES: CC(=O)N[C@@H](CCCCN)C(=O)N[C@@H](Cc1ccc(O)cc1)C(=O)N[C@@H](CS)C(N)=O [KYC, N-acetyl Lysyltyrosylcysteine amide] (Ac-Lys-Tyr-Cys-NH2)
- eosinophil infiltration in the lungs ([1]; H&E): markedly reduce eosinophil infiltration to essentially control levels
- collagen deposition in the lungs ([1]; McLetchie trichrome): markedly reduces collagen deposition to control levels
- MPO-mediated BSA nitration (MPO [2]; 30 µM): inhibits
- NO2Tyr formation in BSA (MPO [2]; 50 µM, H2O2 25 µM, NaNO2 50 µM): essentially ablated
- MPO-mediated BSA nitration (MPO [2]; 250 µM): essentially ablates
- MPO-mediated MDA formation in LDL (MPO [3]): dose-dependently inhibited
- NO2Tyr in LDL (MPO [4]): markedly reduces
- WBC counts (SCD mice): more than half; also recorded: reduced by half

— patent publication EP2873675A1, “Peptide-based peroxidase inhibitors and methods of using same” (The Medical College of Wisconsin, Inc., priority 2013, dated 2015)
